Results on four compounds are retold here after ChEMBL document CHEMBL2057192, “Small molecular weight PEGylation of diosgenin in an in vivo animal study for diabetic auditory impairment treatment” (Bioorg Med Chem Lett, 2012).

For data set [1], the system named is Mus musculus. Nature of the data set: Antidiabetic activity in streptozotocin-induced diabetic ICR mouse assessed as change in blood glucose level at 20 mg/kg, po administered QD measured 9 weeks after STZ challenge (reference value: 529.90 +/- 49.17 mg/dl). Format: functional.
Data set [2] deals with Mus musculus. Briefly: Antidiabetic activity in streptozotocin-induced diabetic ICR mouse assessed as change in body weight at 20 mg/kg, po administered QD measured 1 week after STZ challenge (reference value: 33.25 +/- 0.75 g). Format: functional.
For data set [3], the system named is Mus musculus. Nature of the data set: Protective activity against hearing loss in streptozotocin-induced diabetic ICR mouse assessed as decrease in positive A peak latency at 20 mg/kg, po administered QD measured after 8 weeks by auditory middle latency response test. Format: functional, organism-based. Also on record: dose 20 mg/kg.
Data set [4] relates to Mus musculus. Briefly: Protective activity against hearing loss in streptozotocin-induced diabetic ICR mouse assessed as increase in negative A peak-positive A peak amplitude at 20 mg/kg, po administered QD measured after 8 weeks by auditory middle latency response test. Format: functional, organism-based. Also on record: dose 20 mg/kg.
Data set [5] relates to Mus musculus. Nature of the data set: Protective activity against hearing loss in streptozotocin-induced diabetic ICR mouse using 8 KHz tone bursts at 20 mg/kg, po administered QD measured after 8 weeks by auditory brainstem response test. On the set-up: dose 20 mg/kg. Format: functional, organism-based.
In data set [6] the test system is Mus musculus. Nature of the data set: Antidiabetic activity in streptozotocin-induced diabetic ICR mouse assessed as change in blood glucose level at 20 mg/kg, po administered QD measured 1 week after STZ challenge (reference value: 516.33 +/- 46.73 mg/dl). Format: functional.
Data set [7] deals with Mus musculus. Briefly: Protective activity against hearing loss in streptozotocin-induced diabetic ICR mouse assessed as increase in negative A peak-positive A peak amplitude at 10 mg/kg, po administered QD measured after 8 weeks by auditory middle latency response test. Format: functional, organism-based. On the set-up: dose 10 mg/kg.
Data set [8] relates to Mus musculus. Briefly: Protective activity against hearing loss in streptozotocin-induced diabetic ICR mouse assessed as increase in signal intensity-to-noise ratio at 20 mg/kg, po administered QD measured after 8 weeks by transient evoked otoacoustic emission test. Format: functional, organism-based. Also on record: dose 20 mg/kg.
Data set [9] deals with Mus musculus. Nature of the data set: Protective activity against hearing loss in streptozotocin-induced diabetic ICR mouse assessed as decrease in positive A peak latency at 10 mg/kg, po administered QD measured after 8 weeks by auditory middle latency response test. Also on record: dose 10 mg/kg. Format: functional, organism-based.
Data set [10] deals with Mus musculus. Briefly: Protective activity against hearing loss in streptozotocin-induced diabetic ICR mouse assessed as increase in signal intensity-to-noise ratio at 10 mg/kg, po administered QD measured after 8 weeks by transient evoked otoacoustic emission test. It counts as functional, organism-based. On the set-up: dose 10 mg/kg.
Data set [11] has as its system Mus musculus. Nature of the data set: Antidiabetic activity in streptozotocin-induced diabetic ICR mouse assessed as change in blood glucose level at 10 mg/kg, po administered QD measured 1 week after STZ challenge (reference value: 516.33 +/- 46.73 mg/dl). It counts as functional.
The test system of data set [12] is Mus musculus. Nature of the data set: Antidiabetic activity in streptozotocin-induced diabetic ICR mouse assessed as change in body weight at 10 mg/kg, po administered QD measured 9 weeks after STZ challenge (reference value: 34.15 +/- 1.16 g). Format: functional.
Data set [13] deals with Mus musculus. Nature of the data set: Antidiabetic activity in streptozotocin-induced diabetic ICR mouse assessed as change in body weight at 20 mg/kg, po administered QD measured 9 weeks after STZ challenge (reference value: 34.15 +/- 1.16 g). It counts as functional.
The subject of data set [14] is Mus musculus. Briefly: Protective activity against hearing loss in streptozotocin-induced diabetic ICR mouse using 8 KHz tone bursts at 10 mg/kg, po administered QD measured after 8 weeks by auditory brainstem response test. It counts as functional, organism-based. On the set-up: dose 10 mg/kg.
Data set [15] has as its system Mus musculus. Nature of the data set: Protective activity against hearing loss in streptozotocin-induced diabetic ICR mouse using 4 KHz tone bursts at 10 mg/kg, po administered QD measured after 8 weeks by auditory brainstem response test. It counts as functional, organism-based. Also on record: dose 10 mg/kg.
Data set [16] relates to Mus musculus. Nature of the data set: Antidiabetic activity in streptozotocin-induced diabetic ICR mouse assessed as change in body weight at 10 mg/kg, po administered QD measured 1 week after STZ challenge (reference value: 33.25 +/- 0.75 g). Format: functional.
Data set [17] deals with Mus musculus. Nature of the data set: Antidiabetic activity in streptozotocin-induced diabetic ICR mouse assessed as change in blood glucose level at 10 mg/kg, po administered QD measured 9 weeks after STZ challenge (reference value: 529.90 +/- 49.17 mg/dl). It counts as functional.
The test system of data set [18] is Mus musculus. Nature of the data set: Protective activity against hearing loss in streptozotocin-induced diabetic ICR mouse using 4 KHz tone bursts at 20 mg/kg, po administered QD measured after 8 weeks by auditory brainstem response test. Also on record: dose 20 mg/kg. Format: functional, organism-based.
The nature of data set [19]: Oral bioavailability in rat. It counts as ADME, organism-based. To be noted: in vivo.
A short description of data set [20]: Lipophilicity, log P of the compound. It counts as physicochemical. To be noted: octanol/water.

The source made the active and inactive calls. No cut-off for these calls is given here.

Regarding `COCCOCCOCCOCCO[C@H]1CC[C@@]2(C)C(=CC[C@H]3[C@@H]4C[C@@H]5O[C@]6(CC[C@@H](C)CO6)[C@@H](C)[C@@H]5[C@@]4(C)CC[C@@H]32)C1`, the Activity in the data set with Mus musculus [1] is 501.6 mg/dL; in the data set on Mus musculus [2], 32.55 g; with Mus musculus [6], 582.8 mg/dL; in the data set with Mus musculus [11], 522.18 mg/dL; in the data set on Mus musculus [12] it was 33.72 g; in the data set with Mus musculus [13], 37.6 g. Also, the figures for the Activity in the data set on Mus musculus [16] and in the data set with Mus musculus [17] were 30.5 g and 565.56 mg/dL, respectively. Besides, the outcome in the data set on Mus musculus [3], with Mus musculus [4], with Mus musculus [5], in the data set with Mus musculus [7], in the data set on Mus musculus [8] and in the data set with Mus musculus [9] was Active. The outcome in the data set on Mus musculus [10], with Mus musculus [14], in the data set on Mus musculus [15] and in the data set with Mus musculus [18] was Active.
As a reminder, the bioavailability is dose-corrected exposure relative to a reference, in per cent. Lower therefore signals poor availability. In data set [19], `C[C@@H]1CC[C@@]2(OC1)O[C@H]1C[C@H]3[C@@H]4CC=C5C[C@@H](O[C@@H]6O[C@H](CO)[C@@H](O[C@@H]7O[C@@H](C)[C@H](O)[C@@H](O)[C@H]7O)[C@H](O)[C@H]6O[C@@H]6O[C@@H](C)[C@H](O)[C@@H](O)[C@H]6O)CC[C@]5(C)[C@H]4CC[C@]3(C)[C@H]1[C@@H]2C` [DIOSCIN] came in with a bioavailability of 0.2%.
As a reminder, the logP is the decadic logarithm of the partition coefficient of the neutral form, usually between octanol and water. Read a low logP as a more hydrophilic compound. With `C[C@@H]1CC[C@@]2(OC1)O[C@H]1C[C@H]3[C@@H]4CC=C5C[C@@H](O)CC[C@]5(C)[C@H]4CC[C@]3(C)[C@H]1[C@@H]2C` [DISOGENIN], the Activity is 598 mg/dL in the data set with Mus musculus [1]; 33.67 g in the data set on Mus musculus [2]; 574.17 mg/dL with Mus musculus [6]; “>=600 mg/dl” in the data set with Mus musculus [11]; 38.33 g in the data set on Mus musculus [12]; 38.67 g with Mus musculus [13]. The Activity is given as 32.83 g with Mus musculus [16] and “>=600 mg/dl” in the data set on Mus musculus [17]. The compound also registered a log partition coefficient (logP) in [20] of 5.7.
Take `C[C@@H]1CC[C@@]2(OC1)O[C@H]1C[C@H]3[C@@H]4CC=C5C[C@@H](O[C@@H]6O[C@H](CO)[C@@H](O)[C@H](O)[C@H]6O)CC[C@]5(C)[C@H]4CC[C@]3(C)[C@H]1[C@@H]2C` [DISOGLUSIDE]: the Activity with Mus musculus [1] worked out at 592.33 mg/dL; with Mus musculus [2] it was 31.58 g; in the data set on Mus musculus [6] it was 571.75 mg/dL; in the data set with Mus musculus [11], 583.55 mg/dL; in the data set with Mus musculus [12] it was 33.39 g; in the data set with Mus musculus [13], 34.92 g. The Activity in the data set with Mus musculus [16] is given as 33.17 g; in the data set with Mus musculus [17] it was “>=600 mg/dl”. The outcome with Mus musculus [3], in the data set with Mus musculus [4], in the data set with Mus musculus [5] and in the data set with Mus musculus [18] was Active.
